Values after ≈ are worked out from the molar mass of the structure shown.
Tests used:
[1] = test system: Mycobacterium tuberculosis; test: Antimycobacterial activity against Mycobacterium tuberculosis H37Rv in 7H9/ADC/Tween medium measured at day 14 by Alamar Blue assay; type: functional; details: 336 h
[2] = Kinetic solubility of the compound at pH 7.4 after 2 hrs by shake flask method-based HPLC-DAD analysis; type: physicochemical; details: buffer, read-out: Kinetic_solubility
[3] = Metabolic stability in human liver microsomes assessed as compound remaining at 0.1 uM measured at 30 mins by LC-MS/MS analysis; type: ADME; details: read-out: Stability
[4] = Metabolic stability in rat liver microsomes assessed as compound remaining at 0.1 uM measured at 30 mins by LC-MS/MS analysis; type: ADME; details: read-out: Stability
[5] = Metabolic stability in mouse liver microsomes assessed as compound remaining at 0.1 uM measured at 30 mins by LC-MS/MS analysis; type: ADME; details: read-out: Stability
[6] = test system: Mycobacterium tuberculosis; test: Antimycobacterial activity against Mycobacterium tuberculosis H37Rv in GAST-Fe medium measured at day 14 by Alamar Blue assay; type: functional; details: 336 h
[7] = test system: Mycobacterium tuberculosis; test: Antimycobacterial activity against Mycobacterium tuberculosis H37Rv in GAST medium with low Fe level measured at day 14 by Alamar Blue assay; type: functional; details: 336 h
CHO = test: Cytotoxicity against CHO cells assessed as cell viability by MTT assay; type: cell-based; details: Cricetulus griseus

SMILES | MIC99 [1] | solubility kinetic at 2 h [2] | also measured
Cc1cc(NCc2ccccn2)n2ncc(-c3ccc(Cl)cc3)c2n1 | 10 µM (≈ 3.5 µg/mL) | < 5 µM | –
Cc1cc(NCc2ccccn2)n2ncc(-c3ccccc3)c2n1 | 10 µM (≈ 3.15 µg/mL) | < 5 µM | –
Cc1cc(NCc2ccccn2)n2nc(C)c(-c3ccccc3)c2n1 | 5 µM (≈ 1.65 µg/mL) | < 5 µM | remaining at 0.5 h, 0.1 µM [3]: 51.9%; remaining at 0.5 h, 0.1 µM [4]: 39%; remaining at 0.5 h, 0.1 µM [5]: 6.2%; MIC99 [6]: > 160 µM; MIC99 [7]: > 160 µM; IC50 (CHO): 34 µM
Cc1cc(NCc2ccccn2)n2ncc(-c3ccc(F)cc3)c2n1 | 5 µM (≈ 1.67 µg/mL) | < 5 µM | –
Cc1cc(NCc2cccnc2)n2nc(C)c(-c3ccccc3)c2n1 | > 160 µM | 110 µM (≈ 36.3 µg/mL) | –
Cc1cc(NCc2ccncc2)n2nc(C)c(-c3ccccc3)c2n1 | > 160 µM | 134 µM (≈ 44 µg/mL) | –
Cc1cc(NCc2ncccn2)n2nc(C)c(-c3ccccc3)c2n1 | 80 µM (≈ 26.4 µg/mL) | 37.9 µM (≈ 12.5 µg/mL) | –
Cc1cc(NCc2cnccn2)n2nc(C)c(-c3ccccc3)c2n1 | 80 µM (≈ 26.4 µg/mL) | 7.1 µM (≈ 2.35 µg/mL) | –
Cc1cc(NCCc2ccccn2)n2nc(C)c(-c3ccccc3)c2n1 | > 160 µM | < 5 µM | –
Cc1cc(NCCCc2ccccn2)n2nc(C)c(-c3ccccc3)c2n1 | 80 µM (≈ 28.6 µg/mL) | 5.9 µM (≈ 2.11 µg/mL) | –
Cc1cc(Nc2ccccn2)n2nc(C)c(-c3ccccc3)c2n1 | > 160 µM | < 5 µM | –
Cc1cc(N(C)Cc2ccccn2)n2nc(C)c(-c3ccccc3)c2n1 | > 160 µM | 17.5 µM (≈ 6.01 µg/mL) | –
Cc1cc(OCc2ccccn2)n2nc(C)c(-c3ccccc3)c2n1 | > 160 µM | 25.6 µM (≈ 8.46 µg/mL) | –
Cc1cc(NCc2nccn2C)n2nc(C)c(-c3ccccc3)c2n1 | 5 µM (≈ 1.66 µg/mL) | 26.9 µM (≈ 8.94 µg/mL) | MIC99 [6]: 37 µM (≈ 12.3 µg/mL); MIC99 [7]: 20 µM (≈ 6.65 µg/mL); IC50 (CHO): < 9 µM
Cc1cc(NCc2ncc[nH]2)n2nc(C)c(-c3ccccc3)c2n1 | 37 µM (≈ 11.8 µg/mL) | < 5 µM | –
Cc1cc(NCc2c[nH]cn2)n2nc(C)c(-c3ccccc3)c2n1 | > 160 µM | 14.6 µM (≈ 4.65 µg/mL) | –
Cc1cccc(CNc2cc(C)nc3c(-c4ccccc4)c(C)nn23)n1 | > 160 µM | < 5 µM | –
Cc1cc(NCc2ccco2)n2nc(C)c(-c3ccccc3)c2n1 | > 160 µM | < 5 µM | –
Cc1cc(NCc2cccs2)n2nc(C)c(-c3ccccc3)c2n1 | > 160 µM | < 5 µM | –
Cc1cc(NCc2nccs2)n2nc(C)c(-c3ccccc3)c2n1 | > 160 µM | 108 µM (≈ 36.1 µg/mL) | –
Cc1cc(NCc2ccc3ccccc3n2)n2nc(C)c(-c3ccccc3)c2n1 | > 160 µM | < 5 µM | –

SMILES | MIC99 [1] | solubility kinetic at 2 h [2] | also measured
Cc1cc(NCc2ccccn2)n2nc(C)c(-c3ccc(F)cc3)c2n1 | 5 µM (≈ 1.74 µg/mL) | < 5 µM | –
COc1ccc(-c2c(C)nn3c(NCc4ccccn4)cc(C)nc23)cc1 | 20 µM (≈ 7.19 µg/mL) | < 5 µM | –
COc1ccc(-c2cnn3c(NCc4ccccn4)cc(C)nc23)cc1 | 20 µM (≈ 6.91 µg/mL) | < 5 µM | –
Cc1ccc(-c2cnn3c(NCc4ccccn4)cc(C)nc23)cc1 | 5 µM (≈ 1.65 µg/mL) | < 5 µM | –
Cc1cc(NCc2ccccn2)n2ncc(-c3ccc(N(C)C)cc3)c2n1 | 20 µM (≈ 7.17 µg/mL) | < 5 µM | –
Cc1cc(NCc2ccccn2)n2ncc(-c3ccc(C(F)(F)F)cc3)c2n1 | > 160 µM | < 5 µM | –
Cc1cc(NCc2ccccn2)n2ncc(-c3ccc(C#N)cc3)c2n1 | > 160 µM | < 5 µM | –
Cc1cc(NCc2ccccn2)n2ncc(-c3cccc(Cl)c3)c2n1 | 2.5 µM (≈ 0.875 µg/mL) | < 5 µM | MIC99 [6]: > 160 µM; MIC99 [7]: > 160 µM; IC50 (CHO): 3.78 µM
Cc1cc(NCc2ccccn2)n2ncc(-c3cccc(F)c3)c2n1 | 2.5 µM (≈ 0.833 µg/mL) | 5 µM (≈ 1.67 µg/mL) | –
Cc1cc(NCc2ccccn2)n2ncc(-c3ccccc3F)c2n1 | 2.5 µM (≈ 0.833 µg/mL) | 5 µM (≈ 1.67 µg/mL) | MIC99 [6]: > 160 µM; MIC99 [7]: > 160 µM; IC50 (CHO): 5.45 µM
Cc1cc(NCc2ccccn2)n2ncc(-c3ccc(F)c(Cl)c3)c2n1 | 1.25 µM (≈ 0.46 µg/mL) | < 5 µM | MIC99 [6]: > 160 µM; MIC99 [7]: > 160 µM; IC50 (CHO): 20 µM
Cc1cc(NCc2ccccn2)n2ncc(-c3ccccc3C)c2n1 | 1.25 µM (≈ 0.412 µg/mL) | < 5 µM | –
Cc1cc(NCc2ccccn2)n2ncc(-c3c(C)cccc3C)c2n1 | > 160 µM | < 5 µM | –
Cc1cc(NCc2ccccn2)n2ncc(-c3ccc(F)cc3F)c2n1 | > 160 µM | < 5 µM | –
Cc1cc(NCc2ccccn2)n2ncc(-c3cc(F)c(F)c(F)c3)c2n1 | 2.5 µM (≈ 0.923 µg/mL) | < 5 µM | –
Cc1cc(NCc2ccccn2)n2ncc(-c3ccco3)c2n1 | 40 µM (≈ 12.2 µg/mL) | 48.8 µM (≈ 14.9 µg/mL) | –
Cc1cc(NCc2ccccn2)n2ncc(-c3ccsc3)c2n1 | 20 µM (≈ 6.43 µg/mL) | 9 µM (≈ 2.89 µg/mL) | –
Cc1cc(NCc2ccccn2)n2ncc(-c3ccncc3)c2n1 | > 160 µM | 161 µM (≈ 51 µg/mL) | –
Cc1cc(NCc2ccccn2)n2ncc(-c3ccn(C)n3)c2n1 | > 160 µM | 188 µM (≈ 60 µg/mL) | –
Cc1cc(NCc2ccccn2)n2ncc(-c3ccc(C(=O)Nc4ccccc4)cc3)c2n1 | > 160 µM | 5 µM (≈ 2.17 µg/mL) | –
Cc1cc(NCc2ccccn2)n2nc(C)c(Nc3ccccc3)c2n1 | 40 µM (≈ 13.8 µg/mL) | 7.8 µM (≈ 2.69 µg/mL) | –

SMILES | MIC99 [1] | solubility kinetic at 2 h [2] | also measured
Cc1cc(NCc2ccccn2)n2ncc(C3=CCC(F)(F)CC3)c2n1 | 5 µM (≈ 1.78 µg/mL) | 5 µM (≈ 1.78 µg/mL) | –
Cc1cc(NCc2ccccn2)n2ncc(C3=CCOCC3)c2n1 | 80 µM (≈ 25.7 µg/mL) | 171 µM (≈ 54.9 µg/mL) | –
Cc1cc(NCc2ccccn2)n2ncc(Br)c2n1 | > 160 µM | 89.3 µM (≈ 28.4 µg/mL) | –
Cc1cc(NCc2ccccn2)n2nc(C)cc2n1 | 5 µM (≈ 1.27 µg/mL) | > 200 µM | –
Cc1cc(NCC2CCCCN2)n2nc(C)c(-c3ccccc3)c2n1 (centres undefined) | > 160 µM | 189 µM (≈ 63.3 µg/mL) | remaining at 0.5 h, 0.1 µM [3]: 51.8%; remaining at 0.5 h, 0.1 µM [4]: 5.1%; remaining at 0.5 h, 0.1 µM [5]: 14%
CCN1CCCC1CNc1cc(C)nc2c(-c3ccccc3)c(C)nn12 (centres undefined) | > 160 µM | 172 µM (≈ 60.1 µg/mL) | remaining at 0.5 h, 0.1 µM [3]: 54%
Cc1cc(NCc2ccc(F)cn2)n2nc(C)c(-c3ccccc3)c2n1 | 5 µM (≈ 1.74 µg/mL) | < 5 µM | remaining at 0.5 h, 0.1 µM [3]: 31.4%; remaining at 0.5 h, 0.1 µM [4]: 45.5%; remaining at 0.5 h, 0.1 µM [5]: 5.3%; MIC99 [6]: 20 µM (≈ 6.95 µg/mL); MIC99 [7]: > 160 µM; IC50 (CHO): 22 µM
Cc1cc(NCc2cccc[n+]2[O-])n2ncc(-c3ccccc3)c2n1 | > 160 µM | 159 µM (≈ 52.7 µg/mL) | remaining at 0.5 h, 0.1 µM [3]: 99.7%; remaining at 0.5 h, 0.1 µM [4]: 61.2%; remaining at 0.5 h, 0.1 µM [5]: 12.3%
Cc1cc(NCc2nccn2C)n2nc(C)cc2n1 | > 160 µM | 182 µM (≈ 46.7 µg/mL) | remaining at 0.5 h, 0.1 µM [3]: 100%; remaining at 0.5 h, 0.1 µM [4]: 80.6%; remaining at 0.5 h, 0.1 µM [5]: 85.1%
Cc1cc(NCc2ncnn2C)n2nc(C)c(-c3ccccc3)c2n1 | > 160 µM | 185 µM (≈ 61.6 µg/mL) | remaining at 0.5 h, 0.1 µM [3]: 99.5%; remaining at 0.5 h, 0.1 µM [4]: 68.8%; remaining at 0.5 h, 0.1 µM [5]: 18.9%
Cc1cc(NCc2ccccn2)n2ncc(-c3ccc(O)cc3)c2n1 | > 160 µM | 10.9 µM (≈ 3.61 µg/mL) | remaining at 0.5 h, 0.1 µM [3]: 99.3%; remaining at 0.5 h, 0.1 µM [4]: 60.1%; remaining at 0.5 h, 0.1 µM [5]: 41.4%
Cc1cc(NCc2ccccn2)n2ncc(-c3cccc(N)c3)c2n1 | > 160 µM | 160 µM (≈ 52.8 µg/mL) | remaining at 0.5 h, 0.1 µM [3]: 89.5%; remaining at 0.5 h, 0.1 µM [4]: 56.8%; remaining at 0.5 h, 0.1 µM [5]: 55.1%
Cc1cc(NCc2ccccn2)n2ncc(-c3cccc(N(C)C)c3)c2n1 | 80 µM (≈ 28.7 µg/mL) | 94.6 µM (≈ 33.9 µg/mL) | remaining at 0.5 h, 0.1 µM [3]: 33.7%; remaining at 0.5 h, 0.1 µM [4]: 4.5%; remaining at 0.5 h, 0.1 µM [5]: 7.9%
Cc1cc(NCc2ccccn2)n2ncc(-c3cncnc3)c2n1 | 160 µM (≈ 50.8 µg/mL) | 111 µM (≈ 35.2 µg/mL) | –
Cc1cc(NCc2ccccn2)n2ncc(-c3ccc(C(=O)NCCN(C)C)cc3)c2n1 | > 160 µM | 189 µM (≈ 81.3 µg/mL) | –
Cc1cc(NCc2ccccn2)n2nc(C)c(-c3cccnc3F)c2n1 | 10 µM (≈ 3.48 µg/mL) | < 5 µM | remaining at 0.5 h, 0.1 µM [3]: 100%; remaining at 0.5 h, 0.1 µM [4]: 96.5%; remaining at 0.5 h, 0.1 µM [5]: 100%
Cc1cc(NCc2ccccn2)n2ncc(-c3ccc(F)cc3C)c2n1 | > 160 µM | 42.3 µM (≈ 14.7 µg/mL) | –
NC[C@H]1O[C@H](O[C@H]2[C@H](O)[C@@H](O[C@H]3O[C@H](CO)[C@@H](O)[C@H](N)[C@H]3O)[C@H](N)C[C@@H]2N)[C@H](O)[C@@H](O)[C@@H]1O [KANAMYCIN] | 6.45 µM (≈ 3.13 µg/mL) | – | –
CO[C@H]1/C=C/O[C@@]2(C)Oc3c(C)c(O)c4c(O)c(c(/C=N/N5CCN(C)CC5)c(O)c4c3C2=O)NC(=O)/C(C)=C\C=C\[C@H](C)[C@H](O)[C@@H](C)[C@@H](O)[C@@H](C)[C@H](OC(C)=O)[C@@H]1C [RIFAMPIN] | 0.012 µM (≈ 0.00988 µg/mL) | – | –

Reference: ChEMBL document CHEMBL3627697, “Aminopyrazolo[1,5-a]pyrimidines as potential inhibitors of Mycobacterium tuberculosis: Structure activity relationships and ADME characterization” (Bioorg Med Chem, 2015)
